Test results taken from PubChem BioAssay (NCI).
Where “and” joins values, the source holds several entries; their conditions need not be identical. Identical values can stand only once.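 Values below derive from 48-hour exposures of cells grown in 96-well plates, with endpoints linearly interpolated between the two concentrations bracketing the appropriate inhibition level. GI50 is the concentration that inhibits growth by half. TGI: concentration producing complete growth inhibition.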

Assays:
Test in all cases: DTP human tumour cell line panel, 48 h
NCI-H460 lung = test system: NCI-H460 lung
TK-10 renal = test system: TK-10 renal
HOP-92 NSCLC = test system: HOP-92 NSCLC
OVCAR-5 ovarian = test system: OVCAR-5 ovarian
UACC-257 melanoma = test system: UACC-257 melanoma
SF-539 CNS = test system: SF-539 CNS
SN12C renal = test system: SN12C renal
HCT-15 colon = test system: HCT-15 colon
UO-31 renal = test system: UO-31 renal
A549 NSCLC = test system: A549 NSCLC

Structure (SMILES)	GI50 (NCI-H460 lung)	TGI (NCI-H460 lung)	GI50 (TK-10 renal)	TGI (TK-10 renal)	GI50 (HOP-92 NSCLC)	TGI (HOP-92 NSCLC)	GI50 (OVCAR-5 ovarian)	TGI (OVCAR-5 ovarian)	GI50 (UACC-257 melanoma)	TGI (UACC-257 melanoma)	GI50 (SF-539 CNS)	TGI (SF-539 CNS)	GI50 (SN12C renal)	TGI (SN12C renal)	GI50 (HCT-15 colon)	TGI (HCT-15 colon)	GI50 (UO-31 renal)	TGI (UO-31 renal)	GI50 (A549 NSCLC)	TGI (A549 NSCLC)
COc1ccc(/C=C2/CN(C(=O)c3ccccc3F)C/C(=C\c3ccc(OC)cc3)C2=O)cc1	8.81 µM	30.8 µM	4.95 µM	17.7 µM	10.3 µM	39.6 µM	7.55 µM	28.8 µM	3.24 µM	13.3 µM	3.65 µM	14.6 µM	2.78 µM	10.9 µM	2.05 µM	6.62 µM	1.9 µM	6.69 µM	4.83 µM	34.3 µM
O=[N+]([O-])c1ccccc1S(=O)c1ccccc1 (stereo unspecified)	–	> 100 µM	–	> 100 µM	–	> 100 µM	–	> 100 µM	–	> 100 µM	–	> 100 µM	–	> 100 µM	–	> 100 µM	–	> 100 µM	–	> 100 µM
N#C/C(=C\c1ccc(CP(=O)(O)O)cc1)C(N)=O	–	> 100 µM	–	> 100 µM	–	> 100 µM	–	> 100 µM	–	> 100 µM	–	> 100 µM	–	> 100 µM	–	> 100 µM	–	> 100 µM	–	> 100 µM
c1ccc2c(c1)O[As](O[As]1Oc3ccccc3O1)O2	4.43 µM	23.6 µM	4.75 µM	13.3 µM	0.86 µM	5.31 µM	5.01 µM	22.2 µM	2.07 µM	9.88 µM	1.84 µM	6.27 µM	3.02 µM	14.9 µM	2.33 µM	17 µM	1.97 µM	11.3 µM	12 µM	47.8 µM
O=C(NO)c1ccc(C(=O)NO)cc1	–	> 100 µM	–	> 100 µM	–	> 100 µM	–	> 100 µM	–	> 100 µM	–	> 100 µM	–	> 100 µM	–	> 100 µM	–	> 100 µM	–	> 100 µM
Cc1c(/C=C2\CC/C(=C\c3[nH]c(C(=O)OC(C)(C)C)c(C)c3C)C2=O)[nH]c(C(=O)OC(C)(C)C)c1C	–	> 100 µM	–	> 100 µM	–	> 100 µM	–	> 100 µM	–	> 100 µM	–	> 100 µM	–	> 100 µM	–	> 100 µM	–	> 100 µM	–	> 100 µM
OCC(O)CC[CH2][Sn]([c]1ccccc1)([c]1ccccc1)[c]1ccccc1 (stereo unspecified)	15.4 µM	31.6 µM	17 µM	31.2 µM	10.9 µM	24 µM	14.9 µM	28.3 µM	18.4 µM	35.8 µM	17.2 µM	32.5 µM	15.1 µM	30.8 µM	12.7 µM	26.8 µM	14.8 µM	28.4 µM	10.7 µM	22.6 µM
COC1/C=C/O[C@@]2(C)Oc3c(C)c(O)c4c(O)c(cc(O)c4c3C2=O)NC(=O)/C(C)=C\C=C\[C@H](C)C(O)[C@@H](C)[C@@H](O)[C@@H](C)[C@H](OC(C)=O)[C@@H]1C (stereo partly specified)	18.8 µM and 32.7 µM	37 µM and 79.8 µM	–	32.1 µM and 39.1 µM	12 µM	24.3 µM and 23.6 µM	–	80.1 µM	17.5 µM	32.7 µM and 32.9 µM	3.41 µM	12.5 µM and 69.3 µM	11.9 µM	24.6 µM and 33.9 µM	20.9 µM	35.1 µM and 49.8 µM	12 µM	24.4 µM and 96.9 µM	16.8 µM and 58.5 µM	31.3 µM and 143 µM
O=c1/c(=C/c2cccc3ccccc23)sc2nc3ccccc3n12	–	> 100 µM	–	> 100 µM	–	> 100 µM	–	> 100 µM	–	> 100 µM	–	> 100 µM	–	> 100 µM	–	> 100 µM	–	> 100 µM	–	> 100 µM
COc1ccc2c(c1)Oc1nc(N)c(C#N)c(N)c1C2Sc1ccc(SC)cc1 (stereo unspecified)	2.04 µM	4.05 µM	1.77 µM	3.17 µM	1.94 µM	3.56 µM	1.8 µM	3.55 µM	1.9 µM	3.38 µM	1.72 µM	3.11 µM	1.64 µM	3.06 µM	1.58 µM	3.33 µM	1.51 µM	2.84 µM	2 µM	3.91 µM
Cc1oc2ccccc2c(=O)c1Cn1nnc2ccccc21	–	> 100 µM	–	> 100 µM	–	87.4 µM	–	> 100 µM	–	66.9 µM	–	> 100 µM	–	> 100 µM	–	> 100 µM	–	> 100 µM	–	> 100 µM
O=S(=O)(c1cccc(C(F)(F)F)c1)N1c2ccccc2-n2cccc2C1c1cccnc1 (stereo unspecified)	–	> 51.1 µM	–	> 85.1 µM	–	> 67.7 µM	–	> 75.1 µM	–	> 54.6 µM	–	> 60.9 µM	–	> 62.3 µM	–	> 91.4 µM	–	34.3 µM	–	> 56.4 µM
Cc1c(Cl)cccc1NC(=O)CC1Sc2ccccc2NC1=O (stereo unspecified)	–	61.5 µM and 62.5 µM	20.8 µM and 48.2 µM	49.6 µM and > 100 µM	–	42.9 µM and 64 µM	–	> 100 µM	38.7 µM and 5.35 µM	> 94.7 µM and 37.8 µM	–	45.1 µM and 36.2 µM	–	65.6 µM and > 100 µM	8.53 µM and 41.9 µM	> 100 µM	–	49.2 µM and 54.8 µM	–	54.2 µM and > 100 µM
COc1cc(OC)c(-c2cc(=O)c3c(OC)c(OC)c(OC)c(OC)c3o2)cc1OC	–	> 100 µM	–	> 100 µM	–	59 µM	–	> 100 µM	–	> 100 µM	–	> 100 µM	–	> 100 µM	–	> 100 µM	–	> 100 µM	–	> 100 µM
O=C1C=C(SCCO)C(=O)c2ccccc21	1.84 µM	3.59 µM	2.75 µM	6.2 µM	1.3 µM	3.01 µM	4.92 µM	21.4 µM	1.96 µM	3.41 µM	1.65 µM	3.03 µM	1.58 µM	3.04 µM	1.91 µM	3.9 µM	1.24 µM	2.49 µM	2.24 µM	4.59 µM
O=C(NNc1nc2cc(F)ccc2n2c(CN3CCOCC3)ccc12)c1ccccc1	0.0724 µM	1.32 µM	0.276 µM	7.07 µM	0.791 µM	2.87 µM	0.474 µM	3.45 µM	0.456 µM	3.85 µM	0.273 µM	1.39 µM	0.399 µM	2.18 µM	0.0577 µM	1.41 µM	0.0574 µM	1.3 µM	0.303 µM	2.25 µM
